Experimental data from patent publication US20230127839A1, “COMPOUNDS AND COMPOSITIONS FOR TREATING CONDITIONS ASSOCIATED WITH STING ACTIVITY” (IFM Due, Inc., priority 2019, published 2023).

target: T1, hSTING (Homo sapiens, UniProt Q86WV6, G230A/H232R/R293Q/R71H); experiment: STING reporter assay (luciferase) in THP1-Dual KO-IFNAR2 cells stimulated with 2'3'cGAMP; assay type: cell-based; conditions: 2'3'cGAMP 15 μM, 24 h, luciferase reporter activity
T1 construct: host or cells: THP1-Dual KO-IFNAR2 cells
Outline: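 THP1-Dual KO-IFNAR2 cells (2×10E6 cells/mL) exposed to compounds at 0.0017-100 μM final, then stimulated with 2′3′cGAMP (15 μM final) delivered by Lipofectamine 2000 transfection. After 24 h at 37° C, secreted luciferase in supernatant read by QUANTI-Luc luminescence; EC50 calculated.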

T1 sequence (Q86WV6 whole entry R71H/G230A/H232R/R293Q): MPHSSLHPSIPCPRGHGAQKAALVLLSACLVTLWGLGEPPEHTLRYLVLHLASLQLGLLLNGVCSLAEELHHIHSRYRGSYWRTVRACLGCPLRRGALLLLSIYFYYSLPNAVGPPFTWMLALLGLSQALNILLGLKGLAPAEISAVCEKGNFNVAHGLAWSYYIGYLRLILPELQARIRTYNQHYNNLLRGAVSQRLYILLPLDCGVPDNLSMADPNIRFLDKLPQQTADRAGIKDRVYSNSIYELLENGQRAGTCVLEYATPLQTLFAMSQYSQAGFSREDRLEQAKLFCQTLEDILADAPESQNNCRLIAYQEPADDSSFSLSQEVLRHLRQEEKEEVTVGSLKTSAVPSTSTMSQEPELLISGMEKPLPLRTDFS

| EC50 | Compound |
| --- | --- |
| 200 to 1000 nM | O=C(Nc1cnc(N2CC3(CN(CC(F)(F)F)C3)C2)c(Cl)c1)Nc1c[nH]c2ccccc12 [Compound 250, 1-(5-chloro-6-(6-(2,2,2-trifluoroethyl)-2,6-diazaspiro[3.3]heptan-2-yl)pyridin-3-yl)-3-(1H-indol-3-yl)urea] |
| 40 to 200 nM | O=C(Nc1cnc(N2CCN(CC(F)(F)F)CC2)c(F)c1)Nc1c[nH]c2cc(F)c(F)cc12 [Compound 251, 1-(5,6-difluoro-1H-indol-3-yl)-3-(5-fluoro-6-(4-(2,2,2-trifluoroethyl)piperazin-1-yl)pyridin-3-yl)urea] |
| 200 to 1000 nM | O=C(Nc1ccc(N2CCN(CCC(F)(F)F)CC2)nc1)Nc1c[nH]c2ccc(F)cc12 [Compound 252, 1-(5-fluoro-1H-indol-3-yl)-3-(6-(4-(3,3,3-trifluoropropyl)piperazin-1-yl)pyridin-3-yl)urea] |
| 200 to 1000 nM | O=C(Nc1ccc(N2CCN(CC(F)(F)F)CC2)nc1)Nc1c[nH]c2ccc(F)cc12 [Compound 253, 1-(5-fluoro-1H-indol-3-yl)-3-(6-(4-(2,2,2-trifluoroethyl)piperazin-1-yl)pyridin-3-yl)urea] |
| 200 to 1000 nM | O=C(Nc1ccnc(C2CCC(F)(F)CC2)c1)Nc1c[nH]c2ccccc12 [Compound 254, 1-(2-(4,4-difluorocyclohexyl)pyridin-4-yl)-3-(1H-indol-3-yl)urea] |
| 200 to 1000 nM | O=C(Nc1ccnc(C2CCC(F)(F)CC2)c1)Nc1c[nH]c2ccc(Cl)cc12 [Compound 255, 1-(5-chloro-1H-indol-3-yl)-3-(2-(4,4-difluorocyclohexyl)pyridin-4-yl)urea] |
| 200 to 1000 nM | O=C(Nc1cncc(C2CCC(F)(F)CC2)c1)Nc1c[nH]c2ccc(Cl)cc12 [Compound 256, 1-(5-chloro-1H-indol-3-yl)-3-(5-(4,4-difluorocyclohexyl)pyridin-3-yl)urea] |
| 40 to 200 nM | N#Cc1cc(NC(=O)Nc2c[nH]c3ccc(Cl)cc23)cnc1C1CC(F)(F)C1 [Compound 257, 1-(5-chloro-1H-indol-3-yl)-3-(5-cyano-6-(3,3-difluorocyclobutyl)pyridin-3-yl)urea] |
| 200 to 1000 nM | CN(C(=O)Nc1c[nH]c2ccc(Cl)cc12)c1cnc(N2CCC(F)(F)CC2)c(Cl)c1 [Compound 258, 3-(5-chloro-1H-indol-3-yl)-1-(5-chloro-6-(4,4-difluoropiperidin-1-yl)pyridin-3-yl)-1-methylurea] |
| 40 to 200 nM | O=C(Nc1cnc(N2CCN(CC3CC3)CC2)c(Cl)c1)Nc1c[nH]c2ccc(Cl)cc12 [Compound 260, 1-(5-chloro-1H-indol-3-yl)-3-(5-chloro-6-(4-(cyclopropylmethyl)piperazin-1-yl)pyridin-3-yl)urea] |
| 40 to 200 nM | O=C(Nc1cnc(N2CCN(CC(F)F)CC2)c(Cl)c1)Nc1c[nH]c2ccc(Cl)cc12 [Compound 261, 1-(5-chloro-1H-indol-3-yl)-3-(5-chloro-6-(4-(2,2-difluoroethyl)piperazin-1-yl)pyridin-3-yl)urea] |
| 40 to 200 nM | O=C(Nc1cnc(N2CC3(CN(CC(F)(F)F)C3)C2)c(Cl)c1)Nc1c[nH]c2ccc(Cl)cc12 [Compound 262, 1-(5-chloro-1H-indol-3-yl)-3-(5-chloro-6-(6-(2,2,2-trifluoroethyl)-2,6-diazaspiro[3.3]heptan-2-yl)pyridin-3-yl)urea] |
| 200 to 1000 nM | CC1(C)OCC(c2ncc(NC(=O)Nc3c[nH]c4ccccc34)cc2Cl)CO1 [Compound 263, 1-(5-chloro-6-(2,2-dimethyl-1,3-dioxan-5-yl)pyridin-3-yl)-3-(1H-indol-3-yl)urea] |
| 40 to 200 nM | CC1(C)OCC(c2ncc(NC(=O)Nc3c[nH]c4ccc(Cl)cc34)cc2Cl)CO1 [Compound 264, 1-(5-chloro-1H-indol-3-yl)-3-(5-chloro-6-(2,2-dimethyl-1,3-dioxan-5-yl)pyridin-3-yl)urea] |
| 40 to 200 nM | COC(=O)c1cc(NC(=O)Nc2c[nH]c3ccccc23)cnc1C1CCC(F)(F)CC1 [Compound 265, methyl 5-(3-(1H-indol-3-yl)ureido)-2-(4,4-difluorocyclohexyl)nicotinate] |
| 40 to 200 nM | O=C(Nc1cnc(N2CCN(CC(F)(F)F)CC2)c(Cl)c1)Nc1c[nH]c2ccc(F)cc12 [Compound 266, 1-(5-chloro-6-(4-(2,2,2-trifluoroethyl)piperazin-1-yl)pyridin-3-yl)-3-(5-fluoro-1H-indol-3-yl)urea] |
| 40 to 200 nM | O=C(Nc1cnc(N2CCN(CCC(F)(F)F)CC2)c(F)c1)Nc1c[nH]c2ccc(F)cc12 [Compound 267, 1-(5-fluoro-1H-indol-3-yl)-3-(5-fluoro-6-(4-(3,3,3-trifluoropropyl)piperazin-1-yl)pyridin-3-yl)urea] |
| 40 to 200 nM | O=C(Nc1cnc(C2CCN(CC(F)(F)F)CC2)c(Cl)c1)Nc1c[nH]c2ccc(F)cc12 [Compound 268, 1-(5-chloro-6-(1-(2,2,2-trifluoroethyl)piperidin-4-yl)pyridin-3-yl)-3-(5-fluoro-1H-indol-3-yl)urea] |
| 40 to 200 nM | O=C(Nc1cnc(N2CCN(CC(F)(F)F)CC2)c(Cl)c1)Nc1c[nH]c2cc(F)c(F)cc12 [Compound 269, 1-(5-chloro-6-(4-(2,2,2-trifluoroethyl)piperazin-1-yl)pyridin-3-yl)-3-(5,6-difluoro-1H-indol-3-yl)urea] |

| EC50 | Compound |
| --- | --- |
| 40 to 200 nM | O=C(Nc1cnc(C2CCN(CC(F)(F)F)CC2)c(F)c1)Nc1c[nH]c2ccc(F)cc12 [Compound 270, 1-(5-fluoro-1H-indol-3-yl)-3-(5-fluoro-6-(1-(2,2,2-trifluoroethyl)piperidin-4-yl)pyridin-3-yl)urea] |
| 200 to 1000 nM | O=C(Nc1cnc(C2CCN(CC(F)(F)F)CC2)c(F)c1)Nc1c[nH]c2ccccc12 [Compound 271, 1-(5-fluoro-6-(1-(2,2,2-trifluoroethyl)piperidin-4-yl)pyridin-3-yl)-3-(1H-indol-3-yl)urea] |
| 40 to 200 nM | O=C(Nc1ccc(C2CC(F)(F)C2)c(F)c1)Nc1c[nH]c2ccc(F)cc12 [Compound 272, 1-(4-(3,3-difluorocyclobutyl)-3-fluorophenyl)-3-(5-fluoro-1H-indol-3-yl)urea] |
| 200 to 1000 nM | O=C(Nc1ccc(N2CCC(F)(F)CC2)nc1)Nc1c[nH]c2ccc(F)cc12 [Compound 273, 1-(6-(4,4-difluoropiperidin-1-yl)pyridin-3-yl)-3-(5-fluoro-1H-indol-3-yl)urea] |
| 40 to 200 nM | O=C(Nc1cnc(N2CCC(F)(F)CC2)c(F)c1)Nc1c[nH]c2ccc(F)cc12 [Compound 274, 1-(6-(4,4-difluoropiperidin-1-yl)-5-fluoropyridin-3-yl)-3-(5-fluoro-1H-indol-3-yl)urea] |
| 40 to 200 nM | O=C(Nc1cnc(N2CCC3(CC2)CC(F)(F)C3)c(Cl)c1)Nc1c[nH]c2ccc(Cl)cc12 [Compound 275, 1-(5-chloro-1H-indol-3-yl)-3-(5-chloro-6-(2,2-difluoro-7-azaspiro[3.5]nonan-7-yl)pyridin-3-yl)urea] |
| 200 to 1000 nM | Cc1cc(NC(=O)Nc2c[nH]c3ccccc23)cnc1C1CCN(CC(F)(F)F)CC1 [Compound 276, 1-(1H-indol-3-yl)-3-(5-methyl-6-(1-(2,2,2-trifluoroethyl)piperidin-4-yl)pyridin-3-yl)urea] |
| 40 to 200 nM | O=C(Nc1cnc(C2CC(F)(F)C2)c(Cl)c1)Nc1c[nH]c2ccc(F)cc12 [Compound 277, 1-(5-chloro-6-(3,3-difluorocyclobutyl)pyridin-3-yl)-3-(5-fluoro-1H-indol-3-yl)urea] |
| 200 to 1000 nM | O=C(Nc1cnc(N2CCN(CC(F)(F)F)CC2)c(F)c1)Nc1c[nH]c2ccccc12 [Compound 278, 1-(5-fluoro-6-(4-(2,2,2-trifluoroethyl)piperazin-1-yl)pyridin-3-yl)-3-(1H-indol-3-yl)urea] |
| 40 to 200 nM | O=C(Nc1cnc(C2CCN(CC(F)(F)F)CC2)c(Cl)c1)Nc1c[nH]c2ccccc12 [Compound 279, 1-(5-chloro-6-(1-(2,2,2-trifluoroethyl)piperidin-4-yl)pyridin-3-yl)-3-(1H-indol-3-yl)urea] |
| 200 to 1000 nM | O=C(Nc1ccc(N2CCN(CC(F)(F)F)CC2)nc1)Nc1c[nH]c2ccccc12 [Compound 280, 1-(1H-indol-3-yl)-3-(6-(4-(2,2,2-trifluoroethyl)piperazin-1-yl)pyridin-3-yl)urea] |
| 40 to 200 nM | O=C(Nc1cnc(N2CCC3(CCCCO3)CC2)c(Cl)c1)Nc1c[nH]c2ccccc12 [Compound 281, 1-(5-chloro-6-(1-oxa-9-azaspiro[5.5]undecan-9-yl)pyridin-3-yl)-3-(1H-indol-3-yl)urea] |
| 200 to 1000 nM | O=C(Nc1ccc(C2CC(F)(F)C2)c(F)c1)Nc1c[nH]c2ccccc12 [Compound 282, 1-(4-(3,3-difluorocyclobutyl)-3-fluorophenyl)-3-(1H-indol-3-yl)urea] |
| 40 to 200 nM | O=C(Nc1cnc(C2CC(F)(F)C2)c(Cl)c1)Nc1c[nH]c2ccccc12 [Compound 283, 1-(5-chloro-6-(3,3-difluorocyclobutyl)pyridin-3-yl)-3-(1H-indol-3-yl)urea] |
| 40 to 200 nM | C[C@@H]1CN(c2ncc(NC(=O)Nc3c[nH]c4ccc(Cl)cc34)cc2Cl)CCN1C(=O)OC(C)(C)C [Compound 284, tert-butyl(R)-4-(3-chloro-5-(3-(5-chloro-1H-indol-3-yl)ureido)pyridin-2-yl)-2-methylpiperazine-1-carboxylate] |
| 40 to 200 nM | O=C(Nc1cnc(N2CC3CCC(C2)O3)c(Cl)c1)Nc1c[nH]c2ccc(Cl)cc12 [Compound 285, 1-(6-(8-oxa-3-azabicyclo[3.2.1]octan-3-yl)-5-chloropyridin-3-yl)-3-(5-chloro-1H-indol-3-yl)urea] |
| 40 to 200 nM | C[C@H]1CN(c2ncc(NC(=O)Nc3c[nH]c4ccc(Cl)cc34)cc2Cl)C[C@H](C)O1 [Compound 286, 1-(5-chloro-1H-indol-3-yl)-3-(5-chloro-6-((2S,6S)-2,6-dimethylmorpholino)pyridin-3-yl)urea] |
| 40 to 200 nM | O=C(Nc1cc(Cl)c(C2CCC(F)(F)CC2)cn1)Nc1c[nH]c2ccc(F)cc12 [Compound 287, 1-(4-chloro-5-(4,4-difluorocyclohexyl)pyridin-2-yl)-3-(5-fluoro-1H-indol-3-yl)urea] |
